# Laboratory results taken from ChEMBL document CHEMBL1177834, “ADMET rules of thumb II: A comparison of the effects of common substituents on a range of ADMET parameters” (Bioorg Med Chem, 2009).
# Biological target: Cytochrome P450 2C9 (Homo sapiens, UniProt P11712)
# Assay: Inhibition of CYP2C9
# Type: ADME
# Chain of Cytochrome P450 2C9 (P11712 whole entry): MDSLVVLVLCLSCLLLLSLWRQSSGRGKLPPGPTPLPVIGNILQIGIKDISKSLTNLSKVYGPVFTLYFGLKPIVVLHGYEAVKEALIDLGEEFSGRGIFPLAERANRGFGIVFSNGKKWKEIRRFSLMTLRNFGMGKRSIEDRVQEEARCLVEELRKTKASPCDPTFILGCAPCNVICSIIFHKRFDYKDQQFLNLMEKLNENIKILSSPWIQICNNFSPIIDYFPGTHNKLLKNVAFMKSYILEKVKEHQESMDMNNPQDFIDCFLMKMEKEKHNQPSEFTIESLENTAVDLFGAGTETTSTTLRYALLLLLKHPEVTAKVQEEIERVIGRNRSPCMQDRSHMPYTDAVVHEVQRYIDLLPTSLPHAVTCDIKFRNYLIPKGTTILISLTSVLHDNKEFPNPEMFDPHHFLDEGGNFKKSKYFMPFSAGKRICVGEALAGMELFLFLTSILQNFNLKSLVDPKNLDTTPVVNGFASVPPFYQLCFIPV
row,IC50 [µM],Compound
1,31.6,C[C@H](NC(=O)c1c(Cc2cncnc2)c(-c2cccs2)nc2ccccc12)C1CCCCC1
2,15.8,O=C(Cn1c(CCc2cccc(F)c2F)nc(=O)c2ccccc21)N(Cc1ccc(-c2ccc(C(F)(F)F)cc2)cc1)C1CCNCC1
3,20,Cc1ccc2c(N3CCN(CCc4cccc(-c5cncnc5)c4)CC3)cccc2n1
4,20,Cc1c(-c2cccs2)nc2ccccc2c1C(=O)N[C@@H](C)C1CCCCC1
5,0.1,O=C(Cn1c(CCc2cccc(F)c2F)nc(=O)c2cccnc21)N(Cc1ccc(-c2ccc(C(F)(F)F)cc2)cc1)C1CCN(c2ccncn2)CC1
6,10,O=C(N[C@@H](c1cccc(F)c1)C1CC1)c1c(Cc2cncnc2)c(-c2ccccc2)nc2ccccc12
7,0.0794,O=C(Cn1c(CCc2cccc(F)c2F)nc(=O)c2ccccc21)N(Cc1ccc(-c2ccc(C(F)(F)F)cc2)cc1)C1CCN(c2ccncn2)CC1
8,7.94,Cc1c(-c2ccccc2)nc2ccccc2c1C(=O)N[C@@H](c1cccc(F)c1)C1CC1
9,10,Cc1ccc2c(N3CCN(CCc4ccc(F)c(-c5cncnc5)c4)CC3)cccc2n1
10,20,O=C(Cn1c(CCc2cccc(F)c2F)nc(=O)c2cccnc21)N(Cc1ccc(-c2ccc(C(F)(F)F)cc2)cc1)C1CCNCC1

row,Compound,IC50 [µM]
1,Cc1ccc2c(N3CCN(CCc4ccccc4)CC3)cccc2n1,39.8
2,Cc1ccc2c(N3CCN(CCc4ccc(F)cc4)CC3)cccc2n1,31.6
